Results on 14 compounds are retold here after US10138212B2, “Aminoquinazoline compounds as A2A antagonist” (Merck Sharp & Dohme Corp., priority 2015, dated 2018).

Assay [1] deals with human A2a receptor (Homo sapiens (Human), UniProt P29274). The assay is described as follows: A2a competition binding assay using Scintillation Proximity technology. The method in brief: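 Membranes (0.25 or 1 μg) from HEK293 expressing the receptor were pretreated with adenosine deaminase and bound to WGA-coated yttrium silicate SPA beads. They were incubated 1 h at room temperature with compound at 3000–0.15 nM and 0.5 nM tritiated pyrazolotriazolopyrimidine ligand in Ca/Mg-free DPBS with 10 mM MgCl2. Ki was derived from […] by Cheng-Prusoff.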
human A2a receptor, sequence (P29274 whole entry): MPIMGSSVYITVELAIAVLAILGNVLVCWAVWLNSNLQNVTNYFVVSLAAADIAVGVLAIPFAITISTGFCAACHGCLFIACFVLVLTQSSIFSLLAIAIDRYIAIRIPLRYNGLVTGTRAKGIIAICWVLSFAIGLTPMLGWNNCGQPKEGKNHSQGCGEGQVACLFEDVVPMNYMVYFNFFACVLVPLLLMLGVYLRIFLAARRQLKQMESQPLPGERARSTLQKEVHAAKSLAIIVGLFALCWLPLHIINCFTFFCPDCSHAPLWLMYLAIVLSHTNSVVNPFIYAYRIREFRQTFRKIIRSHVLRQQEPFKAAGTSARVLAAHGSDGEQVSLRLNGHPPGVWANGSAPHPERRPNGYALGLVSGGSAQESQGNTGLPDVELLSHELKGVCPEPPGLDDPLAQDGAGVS
A general note: Scintillation proximity formats need no separation of bound from free tracer.

Assay [2] has as its target human A1 receptor (Homo sapiens (Human), UniProt P30542). Put plainly: A1 competition binding assay using Scintillation Proximity technology; selectivity = A1 binding Ki / A2a binding Ki. As to conditions: A1 binding Ki divided by A2a binding Ki. The method in brief:
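SPA competition using 5 ug membranes from CHO-K1 cells expressing human A1, pretreated with adenosine deaminase. Radioligand was 0.7 nM [3H]DPCPX (final), with compound at 3000–0.15 nM in DPBS + 10 mM MgCl2. Incubation was 1 h at room temperature. Non-specific binding was defined with 1 uM DPCPX, and Ki was derived as for A2a.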

Where [3] appears, read: 0.25 μg of membranes from HEK293 cells expressing the human A2a receptor.
The mark [4] stands for this setting: * assay run with 1 μg of membranes versus 0.25 μg, HEK293 cells expressing the human A2a receptor.

human A1 receptor, sequence (P30542 whole entry): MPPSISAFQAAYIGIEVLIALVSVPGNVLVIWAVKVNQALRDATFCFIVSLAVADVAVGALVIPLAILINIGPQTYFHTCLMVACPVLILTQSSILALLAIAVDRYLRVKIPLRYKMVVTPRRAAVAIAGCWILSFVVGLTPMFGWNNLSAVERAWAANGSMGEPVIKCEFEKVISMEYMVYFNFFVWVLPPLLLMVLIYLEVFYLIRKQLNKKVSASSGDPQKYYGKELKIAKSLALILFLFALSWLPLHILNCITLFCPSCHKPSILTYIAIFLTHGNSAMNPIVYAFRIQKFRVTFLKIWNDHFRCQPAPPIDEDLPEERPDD

Turning to `Nc1nc(C(=O)NCc2cc(C3CC3)on2)c2cccc(F)c2n1` [Example 83, 2-amino-N-[(5-cyclopropylisoxazol-3-yl)methyl]-8-fluoro-quinazoline-4-carboxamide], the Ki (as a rule, a dissociation constant, usually derived from enzyme kinetics or from competition with a known ligand) in assay [1] (setting [3]) is 14 nM. The “A2a selectivity (A2a A1 binding selectivity)” value (shortened to “A2a selectivity”) in assay [2] is on record as 3.
The corresponding values for `Nc1nc(C(=O)NCc2cccc3c2OCCN3)c2cccc(F)c2n1` [Example 84, 2-amino-N-(3,4-dihydro-2H-1,4-benzoxazin-8-ylmethyl)-8-fluoro-quinazoline-4-carboxamide] are 5.3 nM and 25.
The matching figures for `Nc1nc(C(=O)NCC23CC4CC(CC(C4)C2)C3)c2cccc(F)c2n1` [Example 85, N-(1-adamantylmethyl)-2-amino-8-fluoro-quinazoline-4-carboxamide]: 6.4 nM and 4.
The matching figures for `Nc1nc(C(=O)NCC2CCN(c3ncc(F)cn3)CC2)c2cccc(F)c2n1` [Example 86, 2-amino-8-fluoro-N-[[1-(5-fluoropyrimidin-2-yl)-4-piperidyl]methyl]quinazoline-4-carboxamide]: 8 nM and 141.
In assay [1] (setting [4]), `Nc1nc(C(=O)NCC2CC3CCC2C3)c2cccc(F)c2n1` (stereo not shown) [Example 87, 2-amino-8-fluoro-N-(norbornan-2-ylmethyl)quinazoline-4-carboxamide] registered a Ki of 32 nM. Moreover, the “A2a selectivity” value in assay [2] was 3.
Consider `C[C@@H](NC(=O)c1nc(N)nc2c(F)cccc12)c1cccc2cccnc12` [Example 88, 2-amino-8-fluoro-N-[(1R)-1-(8-quinolyl)ethyl]quinazoline-4-carboxamide], for which the Ki in assay [1] (setting [3]) amounted to 6.7 nM. In addition, the “A2a selectivity” value in assay [2] is on record as 8.
Take `Nc1nc(C(=O)NCc2nccc3ccccc23)c2cccc(F)c2n1` [Example 89, 2-amino-8-fluoro-N-(isoquinolin-1-ylmethyl)quinazoline-4-carboxamide]: in assay [1] (setting [4]), the Ki was 6.6 nM. The “A2a selectivity” value in assay [2] is listed as 13.
As for `Nc1nc(C(=O)NCc2cccc3cccnc23)c2cccc(Cl)c2n1` [Example 91, 2-amino-8-chloro-N-(8-quinolylmethyl)quinazoline-4-carboxamide], the Ki in assay [1] (setting [3]) is 3 nM. Moreover, in assay [2], the “A2a selectivity” value worked out at 70.
The matching figures for `Nc1nc(C(=O)NCc2cccc3cccnc23)c2cccc(C(F)(F)F)c2n1` [Example 92, 2-amino-N-(8-quinolylmethyl)-8-(trifluoromethyl)quinazoline-4-carboxamide]: 2.3 nM and 560.
The corresponding values for `Cc1cccc(CNC(=O)c2nc(N)nc3c(Cl)cc(Cl)cc23)n1` [Example 93, 2-amino-6,8-dichloro-N-[(6-methyl-2-pyridyl)methyl]quinazoline-4-carboxamide] are 6.5 nM and 55.
`CSc1cccc2c(C(=O)NCc3cccc4cccnc34)nc(N)nc12` [Example 94, 2-amino-8-methylsulfanyl-N-(8-quinolylmethyl)quinazoline-4-carboxamide] registered a Ki in assay [1] (setting [4]) of 7.7 nM. Besides, the “A2a selectivity” value in assay [2] stood at 11.
In assay [1] (setting [3]), `CS(=O)(=O)c1cccc2c(C(=O)NCc3cccc4cccnc34)nc(N)nc12` [Example 95, 2-amino-8-methylsulfonyl-N-(8-quinolylmethyl)quinazoline-4-carboxamide] yielded a Ki of 86 nM. For the same compound, the “A2a selectivity” value in assay [2] is 55.
In assay [1] (setting [4]), `Nc1nc(C(=O)NCc2cccc3cccnc23)c2cccc(Br)c2n1` [Example 96, 2-amino-8-bromo-N-(8-quinolylmethyl)quinazoline-4-carboxamide] gave a Ki of 0.7 nM. The “A2a selectivity” value in assay [2] is listed as 12.
Regarding `Nc1nc(C(=O)NCc2cccc3cccnc23)c2cccc(-c3cncnc3)c2n1` [Example 97, 2-amino-8-pyrimidin-5-yl-N-(8-quinolylmethyl)quinazoline-4-carboxamide], affinity in assay [1] (setting [3]) was put at a Ki of 291 nM. In assay [2], the “A2a selectivity” value stood at 1.
